# Measured values taken from US20110039770A1, “INHIBITORS OF PROTEIN KINASE C ISOFORMS AND USES THEREOF” (PHARMAGAP INC., priority 2005, published 2011).
# Where two headings read alike, the source gives them in different places. Where a SMILES comes first, the peptide text is derived from it. The star is where a group is joined. PNA(A) = NCCN(CC(=O)*)C(=O)Cn1cnc2c(N)ncnc21
# How the values were obtained:
# [1] = target: T1, PKC beta 2 (Homo sapiens, UniProt P05771); assay: PepTag Non-Radioactive PKC Assay, purified isoform; type: biochemical; conditions: negative = activation
# T1 construct: purchased
# T1 sequence (P05771 1-673 isoform P05771-2): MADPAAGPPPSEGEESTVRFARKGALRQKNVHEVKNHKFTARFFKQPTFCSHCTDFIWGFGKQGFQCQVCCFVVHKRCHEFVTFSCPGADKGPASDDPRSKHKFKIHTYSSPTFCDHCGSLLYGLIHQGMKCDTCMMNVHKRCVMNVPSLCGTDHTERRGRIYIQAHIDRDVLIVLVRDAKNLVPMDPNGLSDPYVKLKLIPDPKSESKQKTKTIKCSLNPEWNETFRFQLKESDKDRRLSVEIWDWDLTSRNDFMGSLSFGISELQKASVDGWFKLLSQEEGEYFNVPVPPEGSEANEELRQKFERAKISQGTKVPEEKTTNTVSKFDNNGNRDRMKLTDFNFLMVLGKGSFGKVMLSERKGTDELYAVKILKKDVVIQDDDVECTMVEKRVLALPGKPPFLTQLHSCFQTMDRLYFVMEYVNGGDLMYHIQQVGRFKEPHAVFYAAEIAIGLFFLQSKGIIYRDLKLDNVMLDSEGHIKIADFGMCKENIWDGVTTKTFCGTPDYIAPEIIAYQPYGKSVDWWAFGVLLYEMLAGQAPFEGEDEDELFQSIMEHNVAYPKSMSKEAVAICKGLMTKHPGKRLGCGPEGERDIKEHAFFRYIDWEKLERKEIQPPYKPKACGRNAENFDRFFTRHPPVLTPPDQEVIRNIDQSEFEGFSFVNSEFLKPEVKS
# Description: (§1) The inhibitory effect of the PKI compounds 1 to 10 on purified commercially available isoforms representative of the 3 classes of PKC: cPKC (alpha, betaI/II) nPKC (delta and epsilon) aPKC (zeta) was assayed using the PepTag® Non-Radioactive PKC Assay (Promega, Madison, Wis.). The zeta isoform was tested with this assay although its affinity for the substrate provided in the kit was relatively low. The amount of enzyme in the reaction mixture for the PKC zeta assays was multiplied by 2. The assay was used following the manufacturer's recommendations. The principle of the assay is based on the difference in charge of phosphorylated (negatively charged) form versus the non-phoshorylated form of a fluorescent substrate. The two forms can be separated by gel electrophoresis and the negatively charged band excised and the fluorescence measured (exc. 440 nm and em. 590 nm) in 96 well plates on a Galaxy FluoStar plate reader. The PKI compounds were added to the assay mixture at 3 doses: 150, 300 and 600 μM and an extra 75 μM when the inhibition was too high. The assay is strictly biochemical and the doses of the compounds used, therefore, are generally not correlative with in vivo situations.
# [2] = target: PKC delta (Homo sapiens, UniProt Q05655); assay: PepTag Non-Radioactive PKC Assay, purified isoform; type: biochemical; conditions: negative = activation
# Sequence of PKC delta (Q05655 whole entry, canonical isoform): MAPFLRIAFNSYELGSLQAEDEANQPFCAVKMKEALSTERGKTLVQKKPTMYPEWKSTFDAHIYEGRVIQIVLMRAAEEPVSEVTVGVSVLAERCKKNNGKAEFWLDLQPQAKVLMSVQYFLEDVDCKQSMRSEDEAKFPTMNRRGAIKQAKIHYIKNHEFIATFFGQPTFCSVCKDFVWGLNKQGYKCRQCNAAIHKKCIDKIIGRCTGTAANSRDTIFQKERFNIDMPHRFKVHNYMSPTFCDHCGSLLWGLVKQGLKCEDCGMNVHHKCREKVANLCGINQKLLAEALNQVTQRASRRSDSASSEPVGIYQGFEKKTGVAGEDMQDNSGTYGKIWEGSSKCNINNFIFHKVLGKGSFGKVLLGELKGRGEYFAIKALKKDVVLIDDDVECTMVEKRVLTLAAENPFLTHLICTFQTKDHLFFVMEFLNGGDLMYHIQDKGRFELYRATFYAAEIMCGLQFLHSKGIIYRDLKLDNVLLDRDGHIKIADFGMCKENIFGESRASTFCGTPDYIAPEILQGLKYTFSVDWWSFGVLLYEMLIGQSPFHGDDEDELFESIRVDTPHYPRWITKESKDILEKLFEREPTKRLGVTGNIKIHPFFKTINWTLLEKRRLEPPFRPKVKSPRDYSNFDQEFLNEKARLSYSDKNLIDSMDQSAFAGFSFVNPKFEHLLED
# Description: as §1
# [3] = target: PKC beta 1 (Homo sapiens, UniProt P05771); assay: PepTag Non-Radioactive PKC Assay, purified isoform; type: biochemical; set-up: purchased; conditions: negative = activation
# Sequence of PKC beta 1 (P05771 whole entry, canonical isoform): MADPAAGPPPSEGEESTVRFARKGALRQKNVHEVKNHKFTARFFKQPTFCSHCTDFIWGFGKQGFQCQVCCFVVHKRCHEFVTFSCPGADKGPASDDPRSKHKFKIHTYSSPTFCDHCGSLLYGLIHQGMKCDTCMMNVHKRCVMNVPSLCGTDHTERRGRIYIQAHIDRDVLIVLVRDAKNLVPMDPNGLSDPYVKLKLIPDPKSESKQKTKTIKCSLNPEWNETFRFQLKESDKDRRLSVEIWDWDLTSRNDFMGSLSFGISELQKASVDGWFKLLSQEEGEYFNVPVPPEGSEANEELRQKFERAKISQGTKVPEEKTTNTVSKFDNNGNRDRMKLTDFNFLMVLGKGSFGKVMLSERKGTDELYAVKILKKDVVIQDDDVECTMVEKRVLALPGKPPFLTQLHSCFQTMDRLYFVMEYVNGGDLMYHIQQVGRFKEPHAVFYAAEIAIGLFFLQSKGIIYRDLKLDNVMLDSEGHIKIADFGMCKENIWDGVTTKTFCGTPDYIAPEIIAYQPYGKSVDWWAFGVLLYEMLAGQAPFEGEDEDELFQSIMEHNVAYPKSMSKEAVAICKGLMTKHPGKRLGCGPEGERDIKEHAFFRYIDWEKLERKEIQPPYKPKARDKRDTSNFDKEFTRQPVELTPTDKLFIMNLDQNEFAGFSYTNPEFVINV
# Description: as §1
# [4] = target: PKC alpha (Homo sapiens, UniProt P17252); assay: PepTag Non-Radioactive PKC Assay, purified isoform; type: biochemical; set-up: purchased; conditions: negative = activation
# Description: as §1
# [5] = target: T2, PKC epsilon (Homo sapiens, UniProt Q02156); assay: PepTag Non-Radioactive PKC Assay, purified isoform; type: biochemical; set-up: purchased; conditions: negative = activation
# T2 sequence (Q02156 1-737): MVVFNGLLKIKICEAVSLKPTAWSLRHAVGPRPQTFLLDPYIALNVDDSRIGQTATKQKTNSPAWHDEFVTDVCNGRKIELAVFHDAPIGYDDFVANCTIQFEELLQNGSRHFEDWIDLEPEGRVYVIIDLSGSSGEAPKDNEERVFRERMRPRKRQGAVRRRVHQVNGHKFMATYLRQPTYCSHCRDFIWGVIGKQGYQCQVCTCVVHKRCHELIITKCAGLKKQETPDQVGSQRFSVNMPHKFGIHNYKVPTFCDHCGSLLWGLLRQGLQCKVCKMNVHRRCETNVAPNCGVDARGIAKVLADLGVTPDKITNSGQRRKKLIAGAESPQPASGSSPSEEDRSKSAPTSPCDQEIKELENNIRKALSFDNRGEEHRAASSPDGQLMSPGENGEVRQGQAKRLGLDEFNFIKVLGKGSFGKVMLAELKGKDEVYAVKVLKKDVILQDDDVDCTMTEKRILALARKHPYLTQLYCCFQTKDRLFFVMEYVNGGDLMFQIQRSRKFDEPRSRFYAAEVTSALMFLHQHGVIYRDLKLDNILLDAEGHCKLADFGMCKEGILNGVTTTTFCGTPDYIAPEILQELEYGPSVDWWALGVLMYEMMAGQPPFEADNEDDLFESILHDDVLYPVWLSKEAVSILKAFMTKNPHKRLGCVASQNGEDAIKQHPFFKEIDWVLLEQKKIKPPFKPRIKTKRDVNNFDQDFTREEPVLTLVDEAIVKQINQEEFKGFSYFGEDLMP
# Description: as §1
# [6] = target: T3, PKC zeta (Homo sapiens, UniProt Q05513); assay: PepTag Non-Radioactive PKC Assay, purified isoform; type: biochemical; set-up: purchased; conditions: enzyme amount x2, negative = activation
# T3 sequence (Q05513 1-592): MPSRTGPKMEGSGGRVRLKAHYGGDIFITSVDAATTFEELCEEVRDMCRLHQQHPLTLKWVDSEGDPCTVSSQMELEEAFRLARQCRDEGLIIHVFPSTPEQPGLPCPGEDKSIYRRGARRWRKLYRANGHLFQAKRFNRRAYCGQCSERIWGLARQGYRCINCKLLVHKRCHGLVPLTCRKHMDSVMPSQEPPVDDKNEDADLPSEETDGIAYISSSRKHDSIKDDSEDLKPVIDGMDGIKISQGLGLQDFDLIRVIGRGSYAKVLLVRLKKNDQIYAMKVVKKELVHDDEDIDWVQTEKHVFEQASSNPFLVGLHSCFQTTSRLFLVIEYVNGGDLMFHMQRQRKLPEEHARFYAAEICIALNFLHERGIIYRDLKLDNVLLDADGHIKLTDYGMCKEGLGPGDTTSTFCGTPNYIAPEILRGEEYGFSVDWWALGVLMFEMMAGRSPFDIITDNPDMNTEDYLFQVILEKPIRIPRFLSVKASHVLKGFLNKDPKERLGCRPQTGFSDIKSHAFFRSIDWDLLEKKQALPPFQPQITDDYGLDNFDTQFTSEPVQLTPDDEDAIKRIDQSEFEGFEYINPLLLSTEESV
# Description: as §1
# [7] = tested on: IMR-32 human neuroblastoma cells
# Description: The ability of compounds PKI 1, PKI 2 and PKI 3 to inhibit cancer cell proliferation was tested in vitro using the human neuroblastoma cell line IMR-32. Monolayer cell cultures were trypsinized and the test compound was added at the doses indicated in Table 24 and internalized by pinocytic endocytosis using Influx TM pinocytic cell-loading reagent, a kit from Molecular Probes (Eugene, Oreg.) following the manufacturer's recommendations. The indicated doses refer to the concentration in the loading medium, which was used on 1×10^6 cells in a 10 μl volume, i.e. contained 10 μg to 100 ug of test compound that provides […] per cell. […] The cells were treated on day 0 of the experiment. The cells loaded with test compound were cultured in 96 well plates (5,000 cells in 100 μl per well), and the proliferation was monitored over 3 consecutive days. The increase in cell population was quantified using a Hoechst reagent-based assay (modified from Rao and Otto, 1992, Analytical Biochem. 207:186-192) that measures the total DNA of the population. Fluorescence was measured using a Millipore CytoFluor 2350 plate reader (excitation at 360 nm and emission at 460 nm). The measurements were obtained as relative fluorescence intensity, a value that is directly correlated to the total number of cells. Data are expressed as a percentage of matching controls that were supplemented with culture medium alone.
# The ability of the compound TIM 9 to inhibit cancer cell proliferation was tested in vitro using the human neuroblastoma cell line IMR-32 and following the general protocol described in Example 14.
# The ability of the compound TIM 11 to inhibit IMR-32 cancer cell proliferation was tested in vitro following the general protocol described in Example 14.
# The ability of the compound TIM 10 to inhibit cancer cell proliferation was tested in vitro using the human neuroblastoma IMR-32 cell line and following the general protocol described in Example 14.
# [8] = 1.0 mg/mL in loading medium, 24 h
# [9] = 1.0 mg/mL in loading medium, 48 h
# [10] = 1.0 mg/mL in loading medium, 72 h
# [11] = 2.5 mg/mL in loading medium, 24 h
# [12] = 2.5 mg/mL in loading medium, 48 h
# [13] = 2.5 mg/mL in loading medium, 72 h
# [14] = 5.0 mg/mL in loading medium, 24 h
# [15] = 5.0 mg/mL in loading medium, 48 h
# [16] = 5.0 mg/mL in loading medium, 72 h
# [17] = 10.0 mg/mL in loading medium, 24 h
# [18] = 10.0 mg/mL in loading medium, 48 h
# [19] = 10.0 mg/mL in loading medium, 72 h
smiles,measurement,setting,value
CC(=O)N[C@@H](CC(C)C)C(=O)N[C@@H](CCCNC(=N)N)C(=O)N[C@@H](CCCNC(=N)N)C(=O)N[C@@H](C)C(=O)N[C@@H](CCCCNC(=O)CN(CCN)C(=O)Cn1cnc2c(N)ncnc21)C(=O)N[C@@H](CC(C)C)C(=O)NCC(N)=O [PKI 2] (Ac-LRRAK(PNA(A))LG-NH2; C-terminus assumed),inhibition at 150 µM,[1],-59%
same,inhibition at 300 µM,[1],61%
same,inhibition at 600 µM,[1],74%
same,inhibition at 150 µM,[2],59%
same,inhibition at 300 µM,[2],79%
same,inhibition at 600 µM,[2],84%
same,inhibition at 150 µM,[3],18%
same,inhibition at 300 µM,[3],52%
same,inhibition at 600 µM,[3],70%
same,inhibition at 150 µM,[4],-24%
same,inhibition at 300 µM,[4],35%
same,inhibition at 600 µM,[4],83%
same,inhibition at 150 µM,[5],58%
same,inhibition at 300 µM,[5],67%
same,inhibition at 600 µM,[5],84%
same,inhibition at 150 µM,[6],0%
same,inhibition at 300 µM,[6],6%
same,inhibition at 600 µM,[6],20%
same,% Inhibition of IMR-32 proliferation,[7]; [8],49%
same,% Inhibition of IMR-32 proliferation,[7]; [9],51%
same,% Inhibition of IMR-32 proliferation,[7]; [10],10%
same,% Inhibition of IMR-32 proliferation,[7]; [11],29%
same,% Inhibition of IMR-32 proliferation,[7]; [12],21%
same,% Inhibition of IMR-32 proliferation,[7]; [13],26%
same,% Inhibition of IMR-32 proliferation,[7]; [14],31%
same,% Inhibition of IMR-32 proliferation,[7]; [15],20%
same,% Inhibition of IMR-32 proliferation,[7]; [16],17%
same,% Inhibition of IMR-32 proliferation,[7]; [17],31%
same,% Inhibition of IMR-32 proliferation,[7]; [18],29%
same,% Inhibition of IMR-32 proliferation,[7]; [19],21%
CC(=O)N[C@@H](Cc1ccccc1)C(=O)N[C@@H](CCCNC(=N)N)C(=O)N[C@@H](CCCNC(=N)N)C(=O)N[C@@H](CCCCNC(=O)CN(CCN)C(=O)Cn1cnc2c(N)ncnc21)C(=O)N[C@@H](Cc1ccccc1)C(=O)N[C@@H](CCCNC(=N)N)C(=O)N[C@@H](CC(C)C)C(N)=O [PKI 3] (Ac-FRRK(PNA(A))FRL-NH2; C-terminus assumed),inhibition at 150 µM,[1],31%
same,inhibition at 300 µM,[1],83%
same,inhibition at 600 µM,[1],81%
same,inhibition at 150 µM,[2],32%
same,inhibition at 300 µM,[2],41%
same,inhibition at 600 µM,[2],70%
same,inhibition at 150 µM,[3],37%
same,inhibition at 300 µM,[3],76%
same,inhibition at 600 µM,[3],80%
same,inhibition at 150 µM,[4],47%
same,inhibition at 300 µM,[4],51%
same,inhibition at 600 µM,[4],82%
same,inhibition at 150 µM,[5],38%
same,inhibition at 300 µM,[5],53%
same,inhibition at 600 µM,[5],68%
same,inhibition at 150 µM,[6],37%
same,inhibition at 300 µM,[6],40%
same,inhibition at 600 µM,[6],56%
same,% Inhibition of IMR-32 proliferation,[7]; [8],70%
same,% Inhibition of IMR-32 proliferation,[7]; [9],72%
same,% Inhibition of IMR-32 proliferation,[7]; [10],72%
same,% Inhibition of IMR-32 proliferation,[7]; [11],26%
same,% Inhibition of IMR-32 proliferation,[7]; [12],29%
same,% Inhibition of IMR-32 proliferation,[7]; [13],14%
same,% Inhibition of IMR-32 proliferation,[7]; [14],29%
same,% Inhibition of IMR-32 proliferation,[7]; [15],31%
same,% Inhibition of IMR-32 proliferation,[7]; [16],22%
same,% Inhibition of IMR-32 proliferation,[7]; [17],26%
same,% Inhibition of IMR-32 proliferation,[7]; [18],30%
same,% Inhibition of IMR-32 proliferation,[7]; [19],22%
